Values after ≈ are worked out from the molar mass of the structure shown.
Legend:
Assay in all cases: MIC, broth-microdilution (CLSI VET01-A4)
Format in all cases: cell-based
[1] = test system: Mannheimia haemolytica MH 10720 (154, BRD field isolate); details: Mannheimia haemolytica MH 10720; for MIC: read-out: MIC MH 10720
Outline: (§1)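 Visual no-turbidity endpoint over twofold compound dilutions in microdilution trays, interpreted according to CLSI VET01-S3.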

[2] = test system: Mannheimia haemolytica MH 12587 (1071, BRD field isolate, macrolide-resistance: erm+, E+); details: Mannheimia haemolytica MH 12587, macrolide-resistant
Outline: as §1

[3] = test system: Mannheimia haemolytica MH 6357 (M7/2, reference strain, cattle infection strain); details: Mannheimia haemolytica MH 6357; for MIC: read-out: MIC MH 6357
Outline: as §1

[4] = test system: Mannheimia haemolytica MH 6374 (ATCC 33396, reference strain); details: Mannheimia haemolytica MH 6374; for MIC: read-out: MIC MH 6374
Outline: as §1

[5] = test system: Pasteurella multocida PM 10775 (080130003051, BRD field isolate); details: Pasteurella multocida PM 10775
Outline: as §1

[6] = test system: Pasteurella multocida PM 12080 (IV102277-0093, BRD field isolate); details: Pasteurella multocida PM 12080; for MIC: read-out: MIC PM 12080
Outline: as §1

[7] = test system: Pasteurella multocida PM 6267 (P 2225 (L386), reference strain, mouse infection strain); details: Pasteurella multocida PM 6267; for MIC: read-out: MIC PM 6267
Outline: as §1

[8] = test system: Pasteurella multocida PM 6391 (ATCC 43137, reference strain); details: Pasteurella multocida PM 6391; for MIC: read-out: MIC PM 6391
Outline: as §1

[9] = test system: Mannheimia haemolytica MH 13065 (XB0446-6003.9, BRD field isolate)
Outline: (§2)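 Broth microdilution per CLSI VET01-A4 using doubling dilution series of compound. MIC taken as the lowest concentration with no turbidity visible to the unaided eye, interpreted per CLSI VET01-S3.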

[10] = test system: Mannheimia haemolytica MH 13093 (XB0472-6014.1, BRD field isolate)
Outline: as §2

| SMILES | MIC [1] | MIC MH 12587 [2] | MIC [3] | MIC [4] | MIC PM 10775 [5] | MIC PM 12080 [6] | MIC PM 6267 [7] | MIC [8] | MIC [9] | MIC [10] | MIC ([5]; read-out: MIC PM 10775) | MIC PM 6391 [8] | MIC [6] | MIC [7] | MIC MH 10720 [1] | MIC MH 6374 [4] | MIC MH 13065 [9] | MIC MH 6357 [3] | MIC MH 13093 [10] |
| --- | --- | --- | --- | --- | --- | --- | --- | --- | --- | --- | --- | --- | --- | --- | --- | --- | --- | --- | --- |
| CC(C)(N)C(NC(=O)c1ccc(C#Cc2ccc(CNCc3cccnc3)cc2)cc1)C(=O)NO (racemic) [C. 364] | 0.8 µM (≈ 0.377 µg/mL) | 1.6 µM (≈ 0.754 µg/mL) | 1.6 µM (≈ 0.754 µg/mL) | 1.6 µM (≈ 0.754 µg/mL) | <=0.1 μM | <=0.1 μM | <=0.1 μM | 0.2 µM (≈ 0.0943 µg/mL) | 0.8 µM (≈ 0.377 µg/mL) | 1.6 µM (≈ 0.754 µg/mL) |  |  |  |  |  |  |  |  |  |
| CC(C)(N)C(NC(=O)c1ccc(C#Cc2ccc(CNCc3ccnc(Cl)c3)cc2)cc1)C(=O)NO (racemic) [Compound 313] | 0.4 µM (≈ 0.202 µg/mL) | 1.6 µM (≈ 0.81 µg/mL) | 0.8 µM (≈ 0.405 µg/mL) | 0.8 µM (≈ 0.405 µg/mL) |  | <=0.1 μM | <=0.1 μM |  | 1.6 µM (≈ 0.81 µg/mL) | 1.6 µM (≈ 0.81 µg/mL) | 0.2 µM (≈ 0.101 µg/mL) | <=0.1 μM |  |  |  |  |  |  |  |
| CC(C)(N)C(NC(=O)c1ccc(C#Cc2ccc(CNCc3ccccc3)cc2)cc1)C(=O)NO (racemic) [Compound 321] | 0.4 µM (≈ 0.188 µg/mL) | 1.6 µM (≈ 0.753 µg/mL) | 1.6 µM (≈ 0.753 µg/mL) | 0.8 µM (≈ 0.376 µg/mL) | <=0.1 μM |  |  |  | 0.8 µM (≈ 0.376 µg/mL) | 1.6 µM (≈ 0.753 µg/mL) |  | <=0.1 μM | 0.2 µM (≈ 0.0941 µg/mL) | 0.4 µM (≈ 0.188 µg/mL) |  |  |  |  |  |
| C#CCNCc1ccc(C#Cc2ccc(C(=O)NC(C(=O)NO)C(C)(C)N)cc2)cc1 (racemic) [Compound 626] |  | 0.8 µM (≈ 0.335 µg/mL) | 0.8 µM (≈ 0.335 µg/mL) | 0.4 µM (≈ 0.167 µg/mL) | <=0.1 μM | <=0.1 μM | <=0.1 μM |  | 0.4 µM (≈ 0.167 µg/mL) | 0.8 µM (≈ 0.335 µg/mL) |  |  |  |  | <=0.1 μM |  |  |  |  |
| CC(C)C(NC(=O)c1ccc(C#Cc2ccc(CNCC#N)cc2)cc1)C(=O)NO (stereo not drawn) [Compound 346] |  | 0.8 µM (≈ 0.324 µg/mL) | 0.4 µM (≈ 0.162 µg/mL) | 0.4 µM (≈ 0.162 µg/mL) | <=0.1 μM | <=0.1 μM | <=0.1 μM |  | 0.2 µM (≈ 0.0809 µg/mL) | 0.4 µM (≈ 0.162 µg/mL) |  |  |  |  | <=0.1 μM |  |  |  |  |
| C[C@@H](O)[C@H](NC(=O)c1ccc(C#Cc2ccc(CNC3CCC3)s2)cc1)C(=O)NO [Compound 402] |  | 1.6 µM (≈ 0.684 µg/mL) | 0.8 µM (≈ 0.342 µg/mL) | 0.8 µM (≈ 0.342 µg/mL) | <=0.1 μM |  | <=0.1 μM | 0.2 µM (≈ 0.0855 µg/mL) | 0.4 µM (≈ 0.171 µg/mL) | 0.8 µM (≈ 0.342 µg/mL) |  |  | 0.4 µM (≈ 0.171 µg/mL) |  |  |  |  |  |  |
| CCCNCc1ccc(C#Cc2ccc(C(=O)N[C@H](C(=O)NO)[C@@H](C)O)cc2)s1 [Compound 404] |  | 1.6 µM (≈ 0.665 µg/mL) | 1.6 µM (≈ 0.665 µg/mL) | 1.6 µM (≈ 0.665 µg/mL) | <=0.1 μM |  |  | 0.4 µM (≈ 0.166 µg/mL) | 0.8 µM (≈ 0.332 µg/mL) | 1.6 µM (≈ 0.665 µg/mL) |  |  | 0.8 µM (≈ 0.332 µg/mL) | 0.4 µM (≈ 0.166 µg/mL) |  |  |  |  |  |
| C[C@@H](O)[C@H](NC(=O)c1ccc(C#Cc2ccc(CNCC#N)s2)cc1)C(=O)NO [Compound 406] |  | 1.6 µM (≈ 0.66 µg/mL) | 1.6 µM (≈ 0.66 µg/mL) | 1.6 µM (≈ 0.66 µg/mL) | <=0.1 μM |  | <=0.1 μM | 0.2 µM (≈ 0.0825 µg/mL) | 0.8 µM (≈ 0.33 µg/mL) | 1.6 µM (≈ 0.66 µg/mL) |  |  | 0.4 µM (≈ 0.165 µg/mL) |  |  |  |  |  |  |
| C[C@@H](O)[C@H](NC(=O)c1ccc(C#Cc2ccc(CNCc3cccnc3)s2)cc1)C(=O)NO [Compound 407] |  | 0.4 µM (≈ 0.186 µg/mL) | 0.4 µM (≈ 0.186 µg/mL) | 0.4 µM (≈ 0.186 µg/mL) | <=0.1 μM | <=0.1 μM | <=0.1 μM |  | 0.2 µM (≈ 0.0929 µg/mL) | 0.4 µM (≈ 0.186 µg/mL) |  | <=0.1 μM |  |  |  |  |  |  |  |
| C[C@@H](O)[C@H](NC(=O)c1ccc(C#Cc2ccc(CNCc3ccccn3)s2)cc1)C(=O)NO [Compound 408] |  | 0.8 µM (≈ 0.372 µg/mL) | 0.4 µM (≈ 0.186 µg/mL) | 0.4 µM (≈ 0.186 µg/mL) | <=0.1 μM | <=0.1 μM | <=0.1 μM |  | 0.4 µM (≈ 0.186 µg/mL) | 0.4 µM (≈ 0.186 µg/mL) |  | <=0.1 μM |  |  |  |  |  |  |  |
| C[C@@H](O)[C@H](NC(=O)c1ccc(C#Cc2ccc(CNCc3ccco3)s2)cc1)C(=O)NO [Compound 409] |  | 0.4 µM (≈ 0.181 µg/mL) | 0.2 µM (≈ 0.0907 µg/mL) |  | <=0.1 μM | <=0.1 μM | <=0.1 μM |  |  | 0.2 µM (≈ 0.0907 µg/mL) |  | <=0.1 μM |  |  |  | <=0.1 μM | <=0.1 μM |  |  |
| C[C@@H](O)[C@H](NC(=O)c1ccc(C#Cc2ccc(CNCc3cccs3)s2)cc1)C(=O)NO [Compound 410] |  | 0.2 µM (≈ 0.0939 µg/mL) |  |  | <=0.1 μM | <=0.1 μM | <=0.1 μM |  |  |  |  | <=0.1 μM |  |  |  | <=0.1 μM | <=0.1 μM | <=0.1 μM | <=0.1 μM |
| Cc1ccc(CNCc2ccc(C#Cc3ccc(C(=O)N[C@H](C(=O)NO)[C@@H](C)O)cc3)s2)cc1 [Compound 411] |  | 0.4 µM (≈ 0.191 µg/mL) | 0.2 µM (≈ 0.0955 µg/mL) |  | <=0.1 μM | <=0.1 μM | <=0.1 μM |  |  | 0.2 µM (≈ 0.0955 µg/mL) |  | <=0.1 μM |  |  |  | <=0.1 μM | <=0.1 μM |  |  |
| C[C@@H](O)[C@H](NC(=O)c1ccc(C#Cc2ccc(CNCc3ccco3)nc2)cc1)C(=O)NO [Compound 424] |  | 1.6 µM (≈ 0.718 µg/mL) | 0.8 µM (≈ 0.359 µg/mL) | 1.6 µM (≈ 0.718 µg/mL) | <=0.1 μM | <=0.1 μM | <=0.1 μM |  | 0.4 µM (≈ 0.179 µg/mL) | 0.8 µM (≈ 0.359 µg/mL) |  | <=0.1 μM |  |  |  |  |  |  |  |
| C[C@@H](O)[C@H](NC(=O)c1ccc(C#Cc2ccc(CNCc3cccs3)nc2)cc1)C(=O)NO [Compound 425] |  | 0.8 µM (≈ 0.372 µg/mL) | 0.8 µM (≈ 0.372 µg/mL) | 0.8 µM (≈ 0.372 µg/mL) | <=0.1 μM | <=0.1 μM | <=0.1 μM |  | 0.4 µM (≈ 0.186 µg/mL) | 0.8 µM (≈ 0.372 µg/mL) |  | <=0.1 μM |  |  |  |  |  |  |  |

From patent US20230000813A1, “COMPOUND FOR THE TREATMENT OF BOVINE OR SWINE RESPIRATORY DISEASE” (Intervet Inc., priority 2016, published 2023)
